Data set [1] in a line: pK1 was determined. The format is ADME. To be noted: read-out: pK1.
Data set [2] is described as follows: pK2 was determined. Type of data set: ADME. The note with it: read-out: pK2.

Take `[O-]/[N+](O)=N\O`: the pKa in data set [1] was 3; in data set [2] it was 9.35.

Values taken from ChEMBL document CHEMBL1139459, “Effects of pH on the cytotoxicity of sodium trioxodinitrate (Angeli's salt)” (J Med Chem, 2004).
